This is an account of results in patent publication US10280163B2 (BeiGene, Ltd., priority 2015, dated 2019).

The target in one experiment is T1, Recombinant IDO1 (Homo sapiens, UniProt P14902).
T1 construct: His tag (N); made in house; host or cells: E. coli
In words: IDO1 enzymatic assay. Conditions: 50 nM IDO1, 1.3 mM D-tryptophan, read-out: Enzyme IC50 (nM) IDO1. Format: biochemical. How it is done: Recombinant IDO1 was overexpressed and purified from E. coli cells with an N-terminal His tag. IDO1 enzymatic assay was carried out using a methodology similar to described in the literature (J. Biol. Chem. (1980), 255, 1339-1345.). The reaction mixture contains 50 nM IDO1, 1.3 mM D-tryptophan, 5 mM L-ascorbic acid, 6.25 μM methylene Blue, 0.4 mg/mL catalase and compound (or DMSO) in a buffer containing 50 mM potassium phosphate pH 7.5 and 0.1% BSA. After incubation at 24° C. for 1.5 hours, absorbance of the reaction mixture was continuously read at 321 nm to monitor the formation of N′-formylkynurenine by a FULOstar OMEGA plate reader (BMG LABTECH) for 1 hour. The enzymatic activity was determined by measuring the slope of the linear absorbance increase as a function of time. The IC50s are calculated based on remaining enzyme activity in the presence of increasing concentrations of compounds.

The target in experiment [1] is T2, cellular IDO1 in HeLa cells (Homo sapiens, UniProt P14902).
T2 construct: endogenous in cells; host or cells: HeLa cells (American Type Tissue Culture Collection), induced with human recombinant IFN-γ
T2 sequence (P14902 whole entry): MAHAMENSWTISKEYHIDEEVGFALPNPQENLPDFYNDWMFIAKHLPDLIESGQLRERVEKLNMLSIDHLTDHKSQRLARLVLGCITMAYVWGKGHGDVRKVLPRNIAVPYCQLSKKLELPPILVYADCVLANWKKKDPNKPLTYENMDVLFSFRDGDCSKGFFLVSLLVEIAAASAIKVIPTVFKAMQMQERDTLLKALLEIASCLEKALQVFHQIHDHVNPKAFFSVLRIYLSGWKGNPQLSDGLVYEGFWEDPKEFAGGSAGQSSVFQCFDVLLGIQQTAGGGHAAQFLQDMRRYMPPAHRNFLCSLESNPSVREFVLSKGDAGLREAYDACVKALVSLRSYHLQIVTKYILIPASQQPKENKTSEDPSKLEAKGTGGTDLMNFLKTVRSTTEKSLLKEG
Nature of the experiment: HeLa cell-based IDO1 Kyn (kynurenine) production assay. Conditions: IFN-γ 100 ng/mL, 48 hours. As for the experimental part: HeLa Cell-Based IDO1 Kyn (Kynurenine) Production Assay:
The inhibitory activity of IDO1 inhibitors is determined by using a colorimetric reaction to measure Kyn generated from L-Trp (L-Tryptophon) oxidation by cellular IDO1 in HeLa cells after induction of IDO1 by IFN-γ.
Hela cells were obtained from the American Type Tissue Culture Collection and recovered in 10% FBS-containing phenol red-free DMEM medium supplemented with 0.4 mM L-Trp. Cells were plated onto a 96-well plate (100 μl/well) at 8000 cells per well. Human recombinant IFN-γ (8901SC, CST) was added to cells (final concentration 100 ng/mL) to stimulate endogenous IDO1. Compounds at different concentrations diluted in dimethylsulfoxide (DMSO) were added simultaneously with IFN-γ. Cells were kept at 37° C. in a humidified incubator supplied with 5% CO2. After 48 hours of incubation, 100 μl supernatant from each well was removed to a new plate. The protein in the medium was precipitated with the addition of 8 μl 6N trichloroacetic acid. The plate was incubated at 60° C. for 45 min and then centrifugation at 2500 rpm for 10 min to remove sediments. 80 μl supernatants were carefully removed to a new clean plate and added with an equal volume of 2% 4-(Dimethylamino) benzaldehyde (D2004, sigma) dissolved in glacial acetic acid. The absorbance at 480 nm wavelength derived from Kyn was measured using a FULOstar OMEGA plate reader (BMG LABTECH). The IC50 for each compound was derived from fitting the dose-response data to the four-parameter logistic model by using Graphpad Prism software.

[2] abbreviates: Table 2, 8-substituted imidazo[1,5-a]pyridines.
Where [3] appears, read: Table 1, 5-substituted imidazo[1,5-a]pyridines.

Where two headings read alike, the source gives them in different places.

T1 sequence (P14902 whole entry): as above

A word on the IC50: it is the concentration needed to halve the response being measured. Broadly, the EC50 is the concentration that produces a half-maximal response. `CC(C)c1ccn2cncc2c1C(O)[C@H]1CC[C@H](O)CC1` (single isomer, unassigned) [Example B121a, (trans)-4-(Hydroxy(7-isopropylimidazo[1,5-a]pyridin-8-yl)methyl) cyclohexan-1-ol]: on Recombinant IDO1 (setting [2]), the IC50 was found to be 210 nM. For the same compound, the EC50 in experiment [1] (setting [2]) was 719 nM.
The like results for `CC(C)c1ccn2cncc2c1C(O)[C@H]1CC[C@H](O)CC1` (single isomer, unassigned) [Example B121b, (trans)-4-(Hydroxy(7-isopropylimidazo[1,5-a]pyridin-8-yl)methyl) cyclohexan-1-ol] were, in that order, 21000 nM and greater than 10000 nM.
`CC(C)c1ccn2cncc2c1[C@@H](O)[C@H]1CC[C@@H](O)CC1` (single isomer, unassigned) [Example B121c]: the IC50 at Recombinant IDO1 (setting [2]) was 110 nM. Besides, the midpoint of the response in experiment [1] (setting [2]), the EC50, lay at 1670 nM.
On the same counts, the results for `CC(C)c1ccn2cncc2c1C(O)[C@H]1CC[C@@H](O)CC1` (single isomer, unassigned) [Example B121d] are 46000 nM and greater than 10000 nM.
The like results for `O[C@H](c1c(C2CC2)ccn2cncc12)C1CC2CCC1C2` (single isomer, unassigned) [Example B122b] were, in that order, 78 nM and 295 nM.
On the same counts, the results for `OC(c1c([C@H]2C[C@@H]2F)ccn2cncc12)C1CCCCC1` (single isomer, unassigned) [Example B128b, Cyclohexyl(7-((trans)-2-fluorocyclopropyl)imidazo[1,5-a]pyridin-8-yl)methanol] are 39000 nM and greater than 10000 nM.
On to `OC(c1c([C@H]2C[C@@H]2F)ccn2cncc12)C1CCCCC1` (single isomer, unassigned) [Example B128c, Cyclohexyl(7-((trans)-2-fluorocyclopropyl)imidazo[1,5-a]pyridin-8-yl)methanol], for which the IC50 on Recombinant IDO1 (setting [2]) stood at 110000 nM. Also, the EC50 in experiment [1] (setting [2]) was greater than 10000 nM.
As to `CS(=O)(=O)N1CCCC(C(O)c2c(C3CC3)ccn3cncc23)C1` (single isomer, unassigned) [Example B130a, (7-Cyclopropylimidazo[1,5-a]pyridin-8-yl)(1-(methylsulfonyl)piperidin-3-yl)methanol], the IC50 at Recombinant IDO1 (setting [2]) is 1400 nM. For the same compound, in experiment [1] (setting [2]), the EC50 was greater than 10000 nM.
On the same counts, the results for `CS(=O)(=O)N1CCCC(C(O)c2c(C3CC3)ccn3cncc23)C1` (single isomer, unassigned) [Example B130b, (7-Cyclopropylimidazo[1,5-a]pyridin-8-yl)(1-(methylsulfonyl)piperidin-3-yl)methanol] are 1200 nM and 909 nM.
In the case of `CC(=O)N1CCCC(C(O)c2c(C3CC3)ccn3cncc23)C1` (single isomer, unassigned) [Example B133a, 1-(3-((7-Cyclopropylimidazo[1,5-a]pyridin-8-yl)(hydroxy)methy)piperidin-1-yl)ethan-1-one], at Recombinant IDO1 (setting [2]), the IC50 is 1900 nM. In experiment [1] (setting [2]), this compound showed an EC50 greater than 10000 nM.
For the compound `CC(=O)N1CCCC(C(O)c2c(C3CC3)ccn3cncc23)C1` (single isomer, unassigned) [Example B133b, 1-(3-((7-Cyclopropylimidazo[1,5-a]pyridin-8-yl)(hydroxy)methy)piperidin-1-yl)ethan-1-one], the IC50 at Recombinant IDO1 (setting [2]) was determined as 1100 nM. In experiment [1] (setting [2]), the EC50 amounted to 6810 nM.
The like results for `NS(=O)(=O)N1CCCC(C(O)c2c(C3CC3)ccn3cncc23)C1` (single isomer, unassigned) [Example B135a, 3-((7-Cyclopropylimidazo[1,5-a]pyridin-8-yl)(hydroxy)methyl)piperidine-1-sulfonamide] were, in that order, 1100 nM and greater than 10000 nM.
The like results for `NS(=O)(=O)N1CCCC(C(O)c2c(C3CC3)ccn3cncc23)C1` (single isomer, unassigned) [Example B135b, 3-((7-Cyclopropylimidazo[1,5-a]pyridin-8-yl)(hydroxy)methyl)piperidine-1-sulfonamide] were, in that order, 950 nM and 1350 nM.
The like results for `OC(c1c(C2CC2)ccn2cncc12)C1CCC(c2ccccc2)CC1` (single isomer, unassigned) [Example B143a, (S)-(7-cyclopropylimidazo[1,5-a]pyridin-8-yl)(trans or cis-4-phenylcyclohexyl)methanol] were, in that order, 56 nM and 79 nM.
On to `OC(c1c(C2CC2)ccn2cncc12)C1CCC(c2ccccc2)CC1` (single isomer, unassigned) [Example B143b, (S)-(7-cyclopropylimidazo[1,5-a]pyridin-8-yl)(cis or trans-4-phenylcyclohexyl)methanol], for which, on Recombinant IDO1 (setting [2]), the IC50 is 300 nM. Also, a half-maximal response in experiment [1] (setting [2]) (EC50) required 8660 nM.
On to `CC(C)(C)C(O)c1cccc2cncn12` (centres unmarked) [Example A004, 1-(imidazo[1,5-a]pyridin-5-yl)-2,2-dimethylpropan-1-ol], for which the IC50 on Recombinant IDO1 (setting [3]) was determined as 360 nM. This compound also displayed an EC50 in experiment [1] (setting [3]) greater than 10000 nM.
On the same counts, the results for `CC(C)C(O)c1cccc2cncn12` (centres unmarked) [Example A005, 1-(imidazo[1,5-a]pyridin-5-yl)-2-methylpropan-1-ol] are 1500 nM and greater than 10000 nM.
The like results for `OC(c1ccc(F)cc1)c1cccc2cncn12` (centres unmarked) [Example A008, (4-fluorophenyl)(imidazo[1,5-a]pyridin-5-yl)methanol] were, in that order, 2400 nM and greater than 10000 nM.
The like results for `CC(O)(c1cccc2cncn12)C1CCCCC1` (centres unmarked) [Example A016, 1-cyclohexyl-1-(imidazo[1,5-a]pyridin-5-yl)ethan-1-ol] were, in that order, 23000 nM and greater than 10000 nM.
With `FC(c1cc(Cl)cc2cncn12)C1CCCCC1` (centres unmarked) [Example A021, 7-chloro-5-(cyclohexylfluoromethyl)imidazo[1,5-a]pyridine], at Recombinant IDO1 (setting [3]), the IC50 came out at 1800 nM. In experiment [1] (setting [3]), this compound registered an EC50 greater than 10000 nM.
On the same counts, the results for `OC(CC1CCCCC1)c1ccc(Cl)c2cncn12` (centres unmarked) [Example A025, 1-(8-chloroimidazo[1,5-a]pyridin-5-yl)-2-cyclohexylethan-1-ol] are 2500 nM and greater than 10000 nM.
The like results for `OCC1(C(O)c2cc(Cl)cc3cncn23)CCCCC1` (centres unmarked) [Example A106, (7-chloroimidazo[1,5-a]pyridin-5-yl)(1-(hydroxymethyl)cyclohexyl)methanol] were, in that order, 120 nM and 1660 nM.
As for `CC(C1CCCCC1)C(O)c1c(Cl)ccc2cncn12` (centres unmarked) [Example A121, 1-(6-chloroimidazo[1,5-a]pyridin-5-yl)-2-cyclohexylpropan-1-ol], the IC50 on Recombinant IDO1 (setting [3]) is 29 nM. Also, in experiment [1] (setting [3]), the response was half-maximal at 1570 nM (EC50).
On the same counts, the results for `OC(c1c(C2CC2)ccc2cncn12)C1CC1` (centres unmarked) [Example A137, cyclopropyl(6-cyclopropylimidazo[1,5-a]pyridin-5-yl)methanol] are 25 nM and 3760 nM.
On the same counts, the results for `OC1CCC([C@H](O)c2c(C3CC3)ccc3cncn23)CC1` (stereo partly drawn) [Example A142a, (1R,4s)-4-((S)-(6-cyclopropylimidazo[1,5-a]pyridin-5-yl)(hydroxy)methyl)cyclohexan-1-ol] are 12 nM and 661 nM.
The like results for `OC(c1c(C2=CCCC2)ccc2cncn12)C1CCCCC1` (centres unmarked) [Example A157, cyclohexyl(6-(cyclopent-1-en-1-yl)imidazo[1,5-a]pyridin-5-yl)methanol] were, in that order, 200 nM and 2680 nM.
On to `OC(c1c(C2CCCC2)ccc2cncn12)C1CCCCC1` (centres unmarked) [Example A158, cyclohexyl(6-cyclopentylimidazo[1,5-a]pyridin-5-yl)methanol], for which, on Recombinant IDO1 (setting [3]), the IC50 was 880 nM. Further, the EC50 in experiment [1] (setting [3]) was found to be 933 nM.
On the same counts, the results for `O=C(O)c1cccc(C(O)c2c(C3CC3)ccc3cncn23)c1` (centres unmarked) [Example A159, 3-((6-cyclopropylimidazo[1,5-a]pyridin-5-yl)(hydroxy)methyl)benzoic acid] are 5500 nM and greater than 10000 nM.
